Columns and labels:
Format in all cases: cell-based, human
[1] = tested on: hiPSC-EPSCs; assay: Colony formation assay (CFA) on 3T3 fibroblast feeders; conditions: small molecules added to expansion medium at passage 4; 2.5 μM CHIR99021, 1 μM DMH-1, 2.5 μM A-83-01; CFA at p7, 1K/well, 10 days
Protocol: FIGS. 2A-2D show characterization of hiPSC-EPSC in vitro. […] For CFA, different hiPSC-EPSC lines (EP61, EP112 and EP116) and control HF-KC were subcultured for 3 passages (p3) then plated on 3T3 fibroblast feeders at 1K/well and incubated for additional 10 days, then fixed and stained with Crystal violet. […] Hair follicle derived keratinocytes (HFKC) are used as reference cells. […] Ns: p>0.05; *: p<0.05; ** p<0.01; *** p<0.001; ****: p<0.0001. […] Note nuclear localization of 3-Cat, a hallmark of Wnt signaling activation in hiPSC-EPSC but not in HF-KC (arrows).
(§1) FIGS. 3A-3E show activation of Wnt signaling pathway via GSK3 inhibition enables long-term expansion of hiPSC-EPSC. […] The clonogenicity of hiPSC-EPSCs was diminishing as a result of serial passaging. […] For CFA, hiPSC-EPSCs were cultured for 7 weeks (p7) with or without small molecule inhibitors, then plated on 3T3 fibroblast feeders at 1K/well and incubated for additional 10 days, then fixed and stained with Crystal violet. The plates were scanned and analyzed using imaging software to determine the confluency. The confluency data from three experiments is summarized in the graph (right panel). […] The graph is showing the percentage of proliferating (Ki67+) hiPSC-EPSC over total nuclei (DAPI+). *: p<0.05. […] Data was analyzed using standard ddCt method and shown as mean±s.d. of the expression from three independent experiments. *: p<0.05; ****: p<0.01. […] Data are represented as a heatmap, where results from eight independent differentiation experiments were averaged and z-scores were calculated for each timepoint represented.
(§2) Despite EPSCs having substantial self-renewal capability in vivo, the prolonged expansion in vitro of EPSC isolated from various tissues has remained challenging. It is well documented that in conventional cultures, freshly isolated EPSCs rapidly lose their clonogenicity and stem cell marker expression signature. Inoue et al, Lab invest. 2009 August, 89(8):844-56; Ohyama et al., J Clin Invest. 2006 January, 116(1):249-60; Yang et al., Stem Cell Research & Therapy (2020) 11:303. […]

[2] = tested on: hiPSC-EPSC; assay: Ki67 immunofluorescent analysis of proliferating cells; conditions: hiPSC-EPSC treated with CHIR-99021 vs untreated cells
Protocol: as §1
Immunocytochemistry: Cells were cultured and imaged in 96 well plates. Briefly, media was aspirated, and wells rinsed once with PBS for 2 minutes. Cells were fixed with 4% formaldehyde for 10 minutes at RT, followed by two washes with PBS. […]

[3] = tested on: Wnt pathway genes LEF1, TCF4, LGR6 in hiPSC-EPSC; assay: qPCR gene expression analysis of Wnt signaling pathway genes; conditions: ddCt, hiPSC-EPSC treated with CHIR-99021
Protocol: as §1
as §2, with “invest.” for “invest. 2009 August, 89(8):844-56; Ohyama et al., J Clin Invest. 2006 January, 116(1):249-60; Yang et al., Stem Cell Research & Therapy (2020) 11:303.”

[4] = tested on: passage 4 hiPSC-EPSCs; assay: Bulk RNA-seq of HF bulge EPSC marker expression; conditions: CHIR-99021 vs DMSO
Protocol: FIGS. 3A-3E show activation of Wnt signaling pathway via GSK3 inhibition enables long-term expansion of hiPSC-EPSC. […] The clonogenicity of hiPSC-EPSCs was diminishing as a result of serial passaging. […] For CFA, hiPSC-EPSCs were cultured for 7 weeks (p7) with or without small molecule inhibitors, then plated on 3T3 fibroblast feeders at 1K/well and incubated for additional 10 days, then fixed and stained with Crystal violet. The plates were scanned and analyzed using imaging software to determine the confluency. The confluency data from three experiments is summarized in the graph (right panel). […] Data was analyzed using standard ddCt method and shown as mean±s.d. of the expression from three independent experiments. *: p<0.05; ****: p<0.01. […] Data are represented as a heatmap, where results from eight independent differentiation experiments were averaged and z-scores were calculated for each timepoint represented.
Bulk RNA-sequencing: RNA was extracted from each sample and quantified with Qubit. cDNA libraries were generated using the NEB library kit. All libraries were then quantified, pooled, and sequenced on Illumina platforms. Reads were first analyzed by fastQC and then trimmed for low-quality bases with Trimmomatic. Clean reads were then aligned to the human reference genome (GRCh38) with Ensembl gene annotation using STAR software. […]

[5] = tested on: HF organoids of hiPSC-EPSC with dermal papilla (DP) cells; assay: 3D hair follicle organoid assay (roundness/elongation score); conditions: 2.5 μM added to EPSC and organoid culture
Protocol: FIGS. 4A-4D show in vitro functional analysis of hiPSC-EPSC in 3D tissue constructs. […] Bottom panel illustrates an organoid development process of using an example of an organoid created by combining fluorescently labeled (red) dermal papilla (DP) cells with HF-KCs. […] Measurement is obtained with CYTATION™ 5 software. Each color represents a different cell combination, and each dot represents a single organoid. The percentage of elongated organoids was increased when hiPSC-EPSC were treated with CHIR-99021. […] Neonatal foreskin-derived keratinocytes (HFK) were used as a control. […]
The stable hiPSC-EPSC with features of HF bulge EPSC described above were investigated as to whether they were receptive to specific mesenchymal stimuli and capable of creating complex multilayered tissues. […] To quantitively assess the organoids elongation and provide an indicator of hiPSC-EPSC functionality in vitro, an automated computational image-based analysis was employed that calculates the roundness of the generated 3D structures, assigning values between 1 and 0, where 1 represents a perfectly round object and 0 a long shaped one. By plotting time-lapse values of roundness score in a graph, the ability of iPSC-EPSC cells to generate elongated structure in combination with DP cells (FIG. 4C) was quantified. […]

Row | Compound | clonogenicity of hiPSC-EPSCs [1] | number of proliferating (Ki67+) cells [2] | expression of Wnt pathway genes including LEF1, TCF4, and LGR6 [3] | expression of HF bulge EPSC markers including KRT15, CD59, TP63, ITGA6, DKK3, SOX9, and NFATC1 [4] | percentage of elongated organoids [5]
1 | Cc1cccc(-c2nn(C(=S)Nc3ccccc3)cc2-c2ccnc3ccccc23)n1 [A-83-01] | not BMP or TGF-β inhibitors, preserved clonogenicity | – | – | – | –
2 | Cc1c[nH]c(-c2cnc(NCCNc3ccc(C#N)cn3)nc2-c2ccc(Cl)cc2Cl)n1 [CHIR-99021, 6-((2-((4-(2,4-Dichlorophenyl)-5-(4-methyl-1H-imidazol-2-yl)pyrimidin-2-yl)amino)ethyl)amino)nicotinonitrile] | preserved clonogenicity | significantly higher number of proliferating cells | upregulation | increased the expression | increased
3 | CC(C)Oc1ccc(-c2cnc3c(-c4ccnc5ccccc45)cnn3c2)cc1 [DMH-1] | not BMP or TGF-β inhibitors, preserved clonogenicity | – | – | – | –
